Drawing on ChEMBL document CHEMBL5038581, “Design, synthesis, and biological evaluation of novel dual inhibitors targeting lysine specific demethylase 1 (LSD1) and histone deacetylases (HDAC) for treatment of gastric cancer” (Eur J Med Chem, 2021), this text covers Activity, IC50 and inhibition for two compounds.

Assay [1] has as its system MGC-803. Kind of assay: Inhibition of cell migration in human MGC-803 cells assessed as upregulation of E-cadherin at 0.2 to 0.6 uM for 48 hrs by western blot analysis. Format: functional, cell-based. The settings on record: dose 0.2-0.6 µM. (In general: In western blotting, separated proteins are transferred to a membrane and probed.)
The test system of assay [2] is MGC-803. Kind of assay: cells. The settings on record: Homo sapiens, MGC-803, 72 h.
In assay [3] the test system is BGC-823. Nature of the assay: cells. The following applies: Homo sapiens, BGC-823, 72 h.
Assay [4] relates to SNU1. Nature of the assay: cells. The following applies: Homo sapiens, SNU1, 72 h.
Assay [5] concerns NCI-N87. Kind of assay: cells. The following applies: Homo sapiens, NCI-N87, 72 h.
In assay [6] the test system is MGC-803. Kind of assay: Inhibition of colony formation in human MGC-803 cells assessed as reduction in colony formation at 0.2 to 0.6 uM measured after 7 days by crystal violet staining based microscopic analysis. The settings on record: dose 0.2-0.6 µM, time 7.0 day. It is filed as functional, cell-based.
Assay [7] has as its system MGC-803. Kind of assay: Inhibition of cell migration in human MGC-803 cells 0.2 to 0.6 uM up to 24 hrs by Hoechst 33258 staining based transwell migration assay. The settings on record: dose 0.2-0.6 µM, time hrs <=24. Format: functional.
For assay [8], the target named is Histone deacetylase 2 (Homo sapiens, UniProt Q92769).
Histone deacetylase 2, sequence (Q92769 whole entry): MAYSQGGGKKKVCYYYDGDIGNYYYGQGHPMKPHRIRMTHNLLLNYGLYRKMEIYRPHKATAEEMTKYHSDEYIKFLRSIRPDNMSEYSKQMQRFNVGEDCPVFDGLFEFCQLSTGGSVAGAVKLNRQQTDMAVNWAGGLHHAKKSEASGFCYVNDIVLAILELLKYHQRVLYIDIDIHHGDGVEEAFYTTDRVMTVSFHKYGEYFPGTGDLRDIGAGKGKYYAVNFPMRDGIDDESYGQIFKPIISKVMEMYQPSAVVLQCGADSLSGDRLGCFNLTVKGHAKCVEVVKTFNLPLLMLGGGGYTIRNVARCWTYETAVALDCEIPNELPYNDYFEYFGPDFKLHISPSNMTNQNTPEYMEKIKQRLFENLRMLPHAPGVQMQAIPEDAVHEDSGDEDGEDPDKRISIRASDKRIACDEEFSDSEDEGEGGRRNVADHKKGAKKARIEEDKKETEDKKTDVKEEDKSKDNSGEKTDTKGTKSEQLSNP
Assay [9] has as its system MGC-803. Kind of assay: Inhibition of cell migration in human MGC-803 cells assessed as downregulation of Vimentin at 0.2 to 0.6 uM for 48 hrs by western blot analysis. It is filed as functional, cell-based. The settings on record: dose 0.2-0.6 µM.
In assay [10] the test system is MKN-45. Nature of the assay: cells. The following applies: Homo sapiens, MKN-45, 72 h.
The test system of assay [11] is MKN-1. Kind of assay: cells. The following applies: Homo sapiens, MKN-1, 72 h.
Assay [12] has as its target T1, Protein deacetylase HDAC6 (Homo sapiens, UniProt Q9UBN7).
T1 sequence (Q9UBN7 whole entry): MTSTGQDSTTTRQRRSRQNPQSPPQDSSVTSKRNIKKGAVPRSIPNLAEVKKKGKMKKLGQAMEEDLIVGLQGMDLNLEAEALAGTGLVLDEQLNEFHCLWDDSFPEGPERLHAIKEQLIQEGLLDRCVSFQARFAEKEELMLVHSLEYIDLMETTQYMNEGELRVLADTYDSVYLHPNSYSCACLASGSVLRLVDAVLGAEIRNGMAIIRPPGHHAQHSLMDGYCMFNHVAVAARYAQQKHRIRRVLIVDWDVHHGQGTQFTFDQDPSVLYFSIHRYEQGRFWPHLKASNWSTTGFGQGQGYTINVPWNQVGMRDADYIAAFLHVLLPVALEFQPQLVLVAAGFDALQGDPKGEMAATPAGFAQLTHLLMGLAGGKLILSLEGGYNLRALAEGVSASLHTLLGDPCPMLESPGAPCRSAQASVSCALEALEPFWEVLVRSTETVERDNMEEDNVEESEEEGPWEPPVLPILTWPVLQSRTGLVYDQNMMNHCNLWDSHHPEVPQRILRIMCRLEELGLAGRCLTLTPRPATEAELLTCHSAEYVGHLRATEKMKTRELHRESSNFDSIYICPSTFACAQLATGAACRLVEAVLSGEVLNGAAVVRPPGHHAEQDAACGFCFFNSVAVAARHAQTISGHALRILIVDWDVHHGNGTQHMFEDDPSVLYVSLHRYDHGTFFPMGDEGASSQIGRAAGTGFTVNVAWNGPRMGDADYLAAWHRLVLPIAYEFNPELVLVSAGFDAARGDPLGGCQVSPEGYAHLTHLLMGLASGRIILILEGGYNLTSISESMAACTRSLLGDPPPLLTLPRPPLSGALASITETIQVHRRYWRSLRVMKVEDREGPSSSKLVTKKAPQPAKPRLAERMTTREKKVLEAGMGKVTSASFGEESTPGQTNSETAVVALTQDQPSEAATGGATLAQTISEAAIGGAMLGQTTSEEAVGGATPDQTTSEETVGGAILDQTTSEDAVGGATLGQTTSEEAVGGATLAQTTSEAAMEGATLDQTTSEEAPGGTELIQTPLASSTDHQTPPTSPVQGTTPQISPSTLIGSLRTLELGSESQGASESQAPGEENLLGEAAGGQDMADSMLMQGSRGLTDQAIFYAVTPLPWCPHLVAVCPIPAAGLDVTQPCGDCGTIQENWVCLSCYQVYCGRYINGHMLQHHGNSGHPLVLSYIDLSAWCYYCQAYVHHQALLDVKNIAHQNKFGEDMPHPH
Nature of the assay: Inhibition of HDAC6 (unknown origin) using Ac-peptide as substrate preincubated for 15 mins followed by substrate addition by fluorescence assay.

Assay [13] has as its system AGS. Nature of the assay: cells. The following applies: Homo sapiens, 72 h.
Assay [14] relates to HCT-116. Nature of the assay: cells. The settings on record: Homo sapiens, HCT-116, 72 h.
The test system of assay [15] is MGC-803. Nature of the assay: Inhibition of cell migration in human MGC-803 cells assessed as upregulation of ZO-1 at 0.2 to 0.6 uM for 48 hrs by western blot analysis. Format: functional, cell-based. The settings on record: dose 0.2-0.6 µM.
Assay [16] deals with Histone deacetylase 11 (Homo sapiens, UniProt Q96DB2). Kind of assay: Inhibition of HDAC11 (unknown origin) using Ac-peptide as substrate preincubated for 15 mins followed by substrate addition by fluorescence based microplate reader analysis.
Histone deacetylase 11, sequence (Q96DB2 whole entry): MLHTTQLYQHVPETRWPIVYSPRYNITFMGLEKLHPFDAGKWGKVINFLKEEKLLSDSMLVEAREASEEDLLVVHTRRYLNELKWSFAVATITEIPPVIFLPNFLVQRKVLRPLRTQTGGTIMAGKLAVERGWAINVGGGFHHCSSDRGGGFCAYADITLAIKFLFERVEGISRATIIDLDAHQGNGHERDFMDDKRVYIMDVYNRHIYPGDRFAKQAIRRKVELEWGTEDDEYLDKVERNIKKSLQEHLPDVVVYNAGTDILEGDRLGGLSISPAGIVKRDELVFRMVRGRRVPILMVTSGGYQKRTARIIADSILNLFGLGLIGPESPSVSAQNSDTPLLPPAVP
In assay [17] the test system is MGC-803. Kind of assay: Inhibition of cell migration in human MGC-803 cells assessed as upregulation of E-cadherin at 2 to 8 uM for 48 hrs by western blot analysis. It is filed as functional, cell-based. The settings on record: dose 2-8 µM.
For assay [18], the system named is MGC-803. Nature of the assay: Inhibition of cell migration in human MGC-803 cells at 2 to 8 uM up to 24 hrs by wound healing assay. It is filed as functional, cell-based. The settings on record: dose 2-8 µM, time hrs <=24.
The test system of assay [19] is MGC-803. Nature of the assay: Inhibition of colony formation in human MGC-803 cells assessed as reduction in colony formation at 4 to 8 uM measured after 7 days by crystal violet staining based microscopic analysis. It is filed as functional, cell-based. The following applies: dose 4-8 µM, time 7.0 day.
Assay [20] has as its system MGC-803. Kind of assay: Inhibition of cell migration in human MGC-803 cells 4 to 8 uM up to 24 hrs by Hoechst 33258 staining based transwell migration assay. Format: functional. The settings on record: dose 4-8 µM, time hrs <=24.
The subject of assay [21] is MGC-803. Kind of assay: Inhibition of cell migration in human MGC-803 cells assessed as upregulation of ZO-1 at 2 to 8 uM for 48 hrs by western blot analysis. It is filed as functional, cell-based. The settings on record: dose 2-8 µM.
Assay [22] concerns MGC-803. Nature of the assay: Inhibition of cell migration in human MGC-803 cells assessed as downregulation of Vimentin at 2 to 8 uM for 48 hrs by western blot analysis. It is filed as functional, cell-based. The following applies: dose 2-8 µM.

Calls of active or inactive are those of the source. The rule behind the calls is not given here.

For the compound `Cc1ccc(-c2cc(/C=C/c3ccc(C(=O)NO)cc3)ccn2)c(F)c1`, the result in assay [1], in assay [9] and in [15] was Active. Moreover, the concentration for half-maximal inhibition (IC50) in assay [2] worked out at 770 nM; in assay [3] it was 1500 nM; in assay [4], 1010 nM; in assay [5], 230 nM; in assay [8], 404 nM; in assay [10], 1160 nM. In addition, the IC50 was 400 nM in [11]; 15 nM in [12]; 1560 nM in assay [13]; 800 nM in [14]; 4930 nM in [16]. The inhibition entry in assay [6] and in [7] was “Dose-Dependent Effect” throughout.

In the case of `O=C(NO)c1ccc(/C=C/c2ccnc(-c3ccccc3O)c2)cc1`, the outcome in [17], in [21] and in [22] was Active. Further, the half-inhibitory concentration (IC50) in assay [2] was 1420 nM; in [12] it was 47 nM; in assay [14], 1450 nM; in [16], greater than 10000 nM. In addition, the inhibition entry in [18] and in assay [20] was “Dose-Dependent Effect” each time. Further, the Activity result in assay [19] was “Dose-Dependent Effect”.

By IC50 is commonly meant the point on the concentration scale where inhibition reaches its midpoint. A high value points to a need for much substance.
